This is an account of results in patent publication US12497610B2, “Functional genomics using CRISPR-CAS systems for saturating mutagenesis of non-coding elements, compositions, methods, libraries and applications thereof” (THE BROAD INSTITUTE, INC., priority 2015, dated 2025).

Holding throughout (assay type): cell-based, human
One data set concerns CUL3. As to the kind of experiment: ddPCR quantification of CUL3 expression in A375 cells transduced with individual sgRNAs. Conditions: for CUL3 expression: A375, relative to non-targeting sgRNAs, result in words; for decrease in CUL3 expression: A375, 7 days post-transduction, normalized to non-targeting sgRNAs. The source says:
Array Validation of Primary Screen Hits
For individual (array) validation of noncoding sgRNAs, Applicants first identified sgRNAs enriched in the top 5% of the library as given by the normalized log 2(Vemu/DMSO) read ratio. In order to have high confidence in these sgRNAs, Applicants used the minimum of the two infection replicates for the normalized log2 (Vemu/DMSO) read ratio. […] This ensures that putative noncoding functional elements were supported by the presence of at least 2 enriched sgRNAs. From this group, Applicants picked 25 sgRNAs distributed across different genomic regions for individual validation (see table S2 for a list of sgRNA sequences). Applicants also included 3 exon-targeting and 3 non-targeting sgRNAs to serve as positive and negative controls, respectively.
For each sgRNA, standard desalted short oligonucleotides (Integrated DNA Technologies) were annealed, phosphorylated and cloned into a lentiviral vector (lentiCRISPRv2, Addgene 52961) that contained Cas9 and an sgRNA cassette. For each sgRNA, A375 cells were transduced with lentiviral supernatants. After 24 hours, media was replaced with R10 with 1 ug/mL of puromycin. Viral volumes were titered such that 20-40% of cells survived after puromycin selection. After selection and expansion for 7 days in puromycin, cell were plated for DNA/RNA extraction, vemurafenib resistance, or ChIP assays.
RNA Extraction and ddPCR Quantification of CUL3 Expression
After 7 days of puromycin selection, A375 cells transduced with individual lentiCRISPRv2 sgRNAs were plated in 3 replicate wells (2×10^3 cells/well) in 96-well plates. After 4 days (70-90% confluent), RNA was extracted using a homemade version of a rapid lysis kit for quantitative PCR (similar to commercial “Cells-to-Ct”-style kits). This procedure (detailed below) enables rapid RNA extraction and qPCR/ddPCR readout from 96-well plates with minimal hands-on time.
Cells were first washed in 100 ul of chilled phosphate-buffered saline (PBS). Then, cells were incubated at room temperature for 8 minutes in 50 ul of Complete Lysis Buffer. The Complete Lysis Buffer consists of the Base Lysis Buffer with freshly added 100 ug/ml Proteinase K (Sigma P2308) and 300 U/mL DNase I (Sigma D2821). When adding DNase I, it is important to not vortex but mix only by gentle pipetting. The Base Lysis Buffer is made in RNAse-free water (ThermoFisher Scientific 10977015) with 10 mM Tris pH8 (Ambion AM9856), 0.5 mM MgCl2 (Sigma M1028), 0.44 mM CaCl2 (Sigma 21115), 10 uM DTT (Sigma 43816), 0.1% Triton X-114 (Calbiochem 648468), and 1.73 mN HCl (Sigma 318965) and should have a final pH of 7.8. The Base Lysis Buffer is stable at 4° C. for up to 6 months.
After the 8-minute incubation in Complete Lysis Buffer, 30 ul of the cell lysis was added to new PCR plates containing 3 ul of STOP buffer in each well to stop the lysis reaction. The STOP buffer is made in RNAse-free water with 1 mM Proteinase K inhibitor AAPF N-(Methoxysuccinyl)-Ala-Ala-Pro-Phe-chloromethyl ketone (SEQ ID NO: 174) (Millipore 539470), 90 mM EDTA (ThermoFisher Scientific 15575020), and 113 uM DTT (Sigma 43816). The final pH of the STOP buffer should be 8, adjusted appropriately with HCl and KOH. The STOP buffer is stable for up to 6 months at 20° C. The lysis reaction was mixed with the STOP buffer by pipetting up and down 5 times. Applicants then incubated the lysis and STOP buffer for at least 2 minutes but not more than 20 minutes. (Extra stopped lysis can be stored at −80° C. for up to 5 months.)
Applicants transferred 5 ul of the stopped lysis to new PCR plates with 20 ul of RT master mix. The RT master mix is from the RevertAid Reverse Transcriptase kit (ThermoFisher Scientific K1691) and is as described in the manufacturer's protocol but with an added oligo-dT primer. […]

The next data set deals with ZNF263. As to the kind of experiment: ChIP-ddPCR for ZNF263. The following applies: ChIP-ddPCR vs non-targeting sgRNA. The method, then: (§1) Chromatin Immunoprecipitation (ChIP) for Histone Modifications and Transcription Factors
(§2) After 7 days of puromycin selection, A375 cells transduced with individual lentiCRISPRv2 sgRNAs were plated in T-225 flasks and grown to 70-90% confluence (6 days). At this point, chromatin fixation was initiated by adding formaldehyde directly to the growth media (final concentration 1%) and incubating at 37° C. for 10 minutes. The entire two-day ChIP procedure was performed using the Magna ChIP HiSens Chromatin Immunoprecipitation Kit (Millipore 1710460), as specified in the manufacturer's protocol. […]
(§3) Using BatchPrimer3, Applicants designed primers centered on the sgRNA target site with a target amplicon size of 80-120 bp (see table S4 for ChIP-ddPCR primers). Droplet digital PCR (ddPCR) reactions using EvaGreen (BioRad 1864034) were used to quantify changes between input, histone/TF ChIP, and IgG ChIP samples for A375 cells transduced with specific sgRNAs and untransduced A375 cells. […] Applicants calculated the percent change in ChIP signal after genome editing by normalizing each ChIP sample to its corresponding input sample and then comparing the normalized ChIP between A375s transduced with specific sgRNAs and untransduced (control) A375 cells.

For another data set, the system named is FOS. As to the kind of experiment: ChIP-ddPCR for FOS. Conditions: ChIP-ddPCR compared with control cells. The method, then: as §1, §2, §3
A further data set relates to JUN. As to the kind of experiment: ChIP-ddPCR for JUN. The following applies: ChIP-ddPCR compared with control cells. The method, then: as §1, §2, §3
Data set [1] relates to sgRNA target sites near CUL3. As to the kind of experiment: Deep sequencing after CRISPR mutagenesis (indel analysis at sgRNA target sites). The method, then:
Deep Sequencing after CRISPR Mutagenesis
After 7 days of puromycin selection, A375 cells transduced with individual lentiCRISPRv2 sgRNAs were plated in 2 replicate wells (2×10^3 cells/well) in 96-well plates. Cells were plated in either R10+DMSO or R10+vemurafenib (2 uM). After 4 days (70-90% confluent), Applicants extracted gDNA from all wells (Illumina/Epicentre QuickExtract QE09050) and performed amplification and deep sequencing as previously described (Shalem et al. 2014). Briefly, for each sgRNA target site, Applicants designed PCR primers to amplify genomic regions surrounding the site (100-200 bp amplicons) and to add universal handles for the second stage of amplification (see table S3 for all deep sequencing primers). Applicants then used a second PCR step to add sequences needed for Illumina sequencing and sample barcoding. Applicants pooled all samples together and sequenced them on a MiSeq using a 250 bp single-end read (Illumina MS-102-2002).
Custom Python scripts were used for barcode demultiplexing and insertion-deletion (indel) length measurement. To measure indel length and eliminate any potential off-target or primer-dimer reads, Applicants first identified our genomic (first PCR step) primers in each read. Applicants then checked that each read contained at least 5 bases beyond each of the genomic primers. Typically, 80-90% of demultiplexed reads matched this criterion. Reads matching this criterion were used to measure indel length by comparing distances between the identified primer-adjacent sequences with those in the reference sequence. Further multiple alignment analysis for specific sgRNAs was done using Geneious's iterative k-mer multiple alignment tool (Geneious 6.1.7).

The next data set has as its system YY1. As to the kind of experiment: ChIP-ddPCR for YY1. Conditions: ChIP-ddPCR around cut site vs non-targeting sgRNA. How it is done:
as §1, §2, §3

For the next data set, the system named is CTCF. As to the kind of experiment: ChIP-ddPCR for CTCF. Conditions: ChIP-ddPCR at the site after editing. The method, then:
as §1, §2, §3

As for “Intron-sg2: validation sgRNA CGCGGAGTCCTCCCTGTGTG, SEQ ID NO 455, intron and promoter (expressed or natural sequence)”, the CUL3 expression entry in the data set on CUL3 is “decrease in CUL3 expression”. Moreover, the ZNF263 occupancy entry in the data set on ZNF263 is recorded as “significant decrease”.
As to “distal 3′ sg1: validation sgRNA AGOACACAGTCATAACCACA, SEQ ID NO 445, 3′ of CUL3 (guide AGCACACAGTCATAACCACA; expressed or natural sequence)”, the “decrease in CUL3 expression” value in the data set with CUL3 is given as approximately 25%. In the data set with FOS, the FOS binding result was “decreased”. The JUN binding entry with JUN is “decreased”.
For “5′-UTR sg2: validation sgRNA GCGCTCCTCCGCGATGGCGG, SEQ ID NO 456, 5′ UTR (expressed or natural sequence)”, the CUL3 expression result with CUL3 is “significantly decrease”. Besides, the “indel mutations that damage a YY1 binding motif” value in data set [1] (A375, vemurafenib vs DMSO control, 4 days) is “more indel mutations that damage a YY1 binding motif”. For the same substance, the “decrease of YY1 binding” value in the data set on YY1 was 67%.
Turning to “Intron-sg1: validation sgRNA TCCGCGGCTGCTAGCAGCGC, SEQ ID NO 454, intron and promoter (expressed or natural sequence)”, the CUL3 expression entry in the data set on CUL3 is on record as “decrease in CUL3 expression”. Moreover, the ZNF263 occupancy entry with ZNF263 is listed as “significant decrease”.
For “distal 3′ sg2: validation sgRNA GCAGCGTCCGGAGTTGGCAC, SEQ ID NO 444, 3′ of CUL3 (expressed or natural sequence)”, the “decrease in CUL3 expression” value in the data set with CUL3 is reported as approximately 25%. For the same substance, the FOS binding entry in the data set with FOS is reported as “decreased”. For the same substance, in the data set with JUN, the JUN binding entry is “decreased”.
Turning to “CTCF sg1: validation sgRNA GCCACAGCCATGCCCAGTOG, SEQ ID NO 446, 3′ of CUL3 (guide GCCACAGCCATGCCCAGTGG; expressed or natural sequence)”, the “decrease in CUL3 expression” value with CUL3 stood at 30%. In data set [1] (A375, deep sequencing of the site), this substance came in with a mean indel size of −9.5 bp. Further, the “amplicons / alleles containing insertion-deletion (indel) mutations” value in data set [1] (A375 after 7 days selection) turned out to be 96%. Also, in the data set with CTCF, the “decrease of CTCF occupancy” value is 45%.
